# Results published in patent publication US20090257985A1, “METHODS OF REGULATING EXPRESSION OF GENES OR OF GENE PRODUCTS USING SUBSTITUTED TETRACYCLINE COMPOUNDS” (priority 2006, published 2009).
# Columns and labels:
# [1] = system: rtTA2s-M2; experiment: Activation of rtTA2s-M2 in vitro; assay type: cell-based; conditions: relative to doxycycline
# [2] = system: rtTA2-34R; experiment: rtTA-mediated gene activation, luciferase positive cell line 34R; assay type: cell-based; conditions: FIGS. 2A and 2C
# Source text: (§1) FIGS. 2A-2D show a comparison of doxycycline and 9-t-butyl doxcycline in 34R and MT2 rtTA mutants. FIGS. 2A and 2B show the effect of doxycyline on 34R and MT2 mutants, respectively. FIGS. 2C and 2D show the effect of 9-t-butyl doxycycline on 34R and MT2 mutants, respectively.
# [3] = system: rtTA2-MT2; experiment: rtTA-mediated gene activation, luciferase positive cell line MT2; assay type: cell-based
# Source text: as §1
# [4] = system: rtTA2s-M2; experiment: Activation of rtTA2s-M2 gene in vivo, bioluminescence of bitransgenic mice rTA M2CaMK-1/LC1; conditions: 0.2 mg/mL in drinking water with 5% sucrose, seven days, compared with doxycycline at 2 mg/mL
# Experimental: 9-t-butyl doxycycline was tested in bitransgenic mice with rTA M2CaMK-1/LC1. The mice expressed the rtTA2s-M2 gene under control of the forebrain specific α-CamKII promoter. In addition, the LC1 mouse had luciferase and cre genes under the control of the bi-directional promoter. The mice were adminstered doxycycline (2 mg/mL) for seven days in the drinking water with 5% sucrose or with 9-t-butyl doxycycline at (0.2 and 2 mg/mL). The mice were anaesthetized with avertin and injected with […] (IP) and placed in the bioluminescence chamber and measured 5 minutes later.
# [5] = system: rtTA; conditions: in vitro; relative to doxycycline
# [6] = system: tet operator-linked nucleotide sequence; conditions: as demonstrated in U.S. Pat. No. 5,789,156; cited from earlier work
# [7] = described in Mansuy and Bujard Curr. Op. Neurobiol. 10:593-96; cited from earlier work
molecule,measurement,setting,value
5-phenylcarbamate doxcycline,activation of rtTA2s-M2 compared with doxycycline,[1],two fold better activiator
9-t-butyl doxycycline,"activity compared with doxycycline, 34R rtTA mutant",[2],ten times more active
same,"activity compared with doxycycline, MT2 rtTA mutant",[3]; FIGS. 2B and 2D,ten times more active
same,concentration at which full induction of the system occurred,[3]; rtTA2-MT2 system,10 ng/mL
same,activation response (luciferase bioluminescence),[4],better activation response
same,"concentration inducing all rtTA's, lower than doxycycline",[5],10 fold
Cc1c2c(c(O)c3c(O)cccc13)C(=O)[C@]1(O)C(=O)C(C(N)=O)=C(O)[C@@H](N(C)C)[C@@H]1C2 [anhydrotetracycline],strength as inducing agent,[6],strong inducing agents
C[C@H]1c2cccc(O)c2C(=O)C2=C(O)[C@]3(O)C(=O)C(C(N)=O)=C(O)[C@@H](N(C)C)[C@@H]3[C@@H](O)[C@@H]21 [doxycycline],penetration of the blood-brain barrier,[7],limited penetration of the blood-brain barrier
